# Legend:
# [1] = tested on: NSG PANC1 mice; assay: Orthotopic pancreatic cancer metastasis model, daily IP treatment; format: in vivo
# Protocol: Because pancreatic cancer patients suffer particular high mortality from metastasis, the in vivo efficacy of metarrestin against metastasis in an orthotopic pancreatic cancer metastasis model was evaluated. The 3D PANC1 cell spheres model, deployed in NOD/interleukin 2 receptor common gamma chain (Il2rγ)^null (NSG) PANC-1 mice (see Suemizu et al., “Identification of a key molecular regulator of liver metastasis in human pancreatic carcinoma using a novel quantitative model of metastasis in NOD/SCID/gammacnull (NOG) mice.” Int. J. Oncol., (31): 741-51 (2007), incorporated herein in its entirety), recapitulates human cancer progression and metastatic phenotype of the disease without the limitations of early death due to complications of local invasion, such as gastric outlet obstruction or impingement of the common bile duct. Sixty thousand 3D luciferase-expressing PANC1-luc cell spheres were injected orthotopically into the pancreas of NSG mice. […] By 8 weeks, macrometastasis on the liver surface were visible.
# Four weeks after inoculation, mice were treated once daily with metarrestin (5 mg/kg or 25 mg/kg) or vehicle via IP injections, continuing for six weeks. […] The treatment was well-tolerated, and animals maintained their body weight (FIG. 11).
# To determine whether PNCs in treated animals were impacted by metarrestin, PNC prevalence in primary tumors and metastatic lesions from control and metarrestin-treated animals (25 mg/kg) were examined 12 weeks after tumor inoculation. […] PNC prevalence in non-treated animals was higher in these groups of tumors and metastatic lesions than in those harvested at an earlier time (FIG. 6) or in cultured PANC1 cells (FIG. 2), consistent with previous findings that late-stage cancers have higher PNC prevalence.
# Pancreatic cancer model: 60,000 luciferase-tagged PANC1 spheres were injected into the pancreas of Nod/IL2gamma (null) mice (obtained from NCI Mouse Repository, Frederick, Md.; on ACUC-approved animal protocol SB-211-2). At 4 weeks after inoculation, mice were treated once daily with metarrestin (5 mg/kg or 25 mg/kg) or vehicle via IP injections, which extended out for 6 more weeks. Mice were injected with luciferin 5 minutes before being sacrificed by CO2 euthanasia. Organs were then individually dissected, subjected to quantitative xenogene imaging, and fixed with 4% non-buffered formaldehyde. Impact of metastatic burden was calculated and graphed as liver and lung/primary tumor ratios based on a five-minute photon count for the liver normalized to liver weight (g), which was then compared to the average photon count per weight (g) of the primary pancreatic tumor of the same animal. This calculation corrects for variations in luciferin injection, mouse heart rate, and perfusion. For overexpression of eEF1A2, 6*10^4 PANC1 3D spheres transduced with eEF1A2 (eEF1A2 OE) were injected into the tail of the pancreas of NSG mice. Mice of both groups were harvested at 6 weeks after implantation and subjected to necropsy. Liver metastasis/mm^2 was calculated as the sum of the […] of the individual metastases. Tumor volume (mm^3) was calculated as (L×W2), where L=length (mm) and W=width (mm). Animal survival was measured from the first day of treatment until death. […]
# [2] = tested on: patient-derived breast cancer xenotransplantation model (PDX); assay: Patient-derived breast cancer xenotransplantation model (PDX); format: in vivo; conditions: 25 mg/kg IP, 5-day on and 2-day off, 4 weeks
# Protocol: Metarrestin was tested in PC3M xenograft mice to determine whether metarrestin's anti-metastasis activity (observed in the NSG PANC1 mice and in vitro pan-cancer PNC suppression) translates into anti-metastasis activity in additional cancer models. Two weeks after subcutaneous implantation of PC3M cells, mice were started on 5 mg/kg or 25 mg/kg metarrestin or vehicle by daily IP injection for 4 additional weeks. Tumor progression was tracked by both in vivo imaging systems (“IVIS”) spectroscopy and tumor volume. Metastasis to the lungs was evaluated ex vivo through IVIS spectroscopy and by histopathology at the experimental endpoint. […] To evaluate the effect of metarrestin on a malignant xenograft considered closest to in vivo conditions, a patient-derived breast cancer xenotransplantation model (PDX) was used. […] Tumor size and total body weight were measured twice a week, and tumor weight was measured at experimental end-point.
# Breast cancer model: The model derived from 0.2 liter of pleural effusion from a breast cancer patient (model #373342). These cancer cells had metastasized to the lung pleura from the initial tumor detected in the breast. […] Tumor size and total body weight were measured twice a week.
# [3] = 5 or 25 mg/kg IP once daily for six weeks
smiles,measurement,setting,value
N=c1c2c(-c3ccccc3)c(-c3ccccc3)n(Cc3ccccc3)c2ncn1[C@H]1CC[C@H](O)CC1 [metarrestin],Metastatic burden in liver,"[1]; 25 mg/kg IP once daily for six weeks, vs vehicle, p<0.01",decrease in metastatic burden
same,Metastatic burden in lung,"[1]; 25 mg/kg IP once daily for six weeks, vs vehicle, p<0.05",decrease in metastatic burden
same,PNC prevalence in metastatic and primary tumor tissues,"[1]; 25 mg/kg, 12 weeks after tumor inoculation, p<0.01",significant reduction of PNC prevalence
same,Primary tumor weight,[1]; [3],not significantly changed
same,"Tolerability, body weight",[1]; [3],well-tolerated
same,PDX growth,[2],effectively inhibited the PDX growth
same,Tolerability (body weight and behavior),[2],well-tolerated

# From patent US20210186972A1, “FORMULATIONS AND METHODS FOR THE PREVENTION AND TREATMENT OF TUMOR METASTASIS AND TUMORIGENESIS” (THE UNITED STATES OF AMERICA, AS REPRESENTED BY THE …, priority 2018, published 2021)
